Data as given in ChEMBL document CHEMBL1201862, “PubChem BioAssay data set” (2004).
Active and inactive are the calls of the source.

Assays:
Type in all cases: functional
SUMO-activating enzyme = SUMO-activating enzyme (Homo sapiens, UniProt Q9UBT2); test: SUMOylation inhibitor hit validation, confirmation, SUMOylation inhibitor project, biochemical, AlphaScreen (AID 2018)
Hexokinase-1 = molecular target: T1, Hexokinase-1 (Homo sapiens, UniProt P19367); test: HK1 enzyme inhibition by HKDC1 hits, SAR follow-up, selectivity assay for HKDC1 inhibitor project, biochemical, set 2, resazurin fluorescence coupled readout (AID 588356)
T1 sequence (P19367 whole entry): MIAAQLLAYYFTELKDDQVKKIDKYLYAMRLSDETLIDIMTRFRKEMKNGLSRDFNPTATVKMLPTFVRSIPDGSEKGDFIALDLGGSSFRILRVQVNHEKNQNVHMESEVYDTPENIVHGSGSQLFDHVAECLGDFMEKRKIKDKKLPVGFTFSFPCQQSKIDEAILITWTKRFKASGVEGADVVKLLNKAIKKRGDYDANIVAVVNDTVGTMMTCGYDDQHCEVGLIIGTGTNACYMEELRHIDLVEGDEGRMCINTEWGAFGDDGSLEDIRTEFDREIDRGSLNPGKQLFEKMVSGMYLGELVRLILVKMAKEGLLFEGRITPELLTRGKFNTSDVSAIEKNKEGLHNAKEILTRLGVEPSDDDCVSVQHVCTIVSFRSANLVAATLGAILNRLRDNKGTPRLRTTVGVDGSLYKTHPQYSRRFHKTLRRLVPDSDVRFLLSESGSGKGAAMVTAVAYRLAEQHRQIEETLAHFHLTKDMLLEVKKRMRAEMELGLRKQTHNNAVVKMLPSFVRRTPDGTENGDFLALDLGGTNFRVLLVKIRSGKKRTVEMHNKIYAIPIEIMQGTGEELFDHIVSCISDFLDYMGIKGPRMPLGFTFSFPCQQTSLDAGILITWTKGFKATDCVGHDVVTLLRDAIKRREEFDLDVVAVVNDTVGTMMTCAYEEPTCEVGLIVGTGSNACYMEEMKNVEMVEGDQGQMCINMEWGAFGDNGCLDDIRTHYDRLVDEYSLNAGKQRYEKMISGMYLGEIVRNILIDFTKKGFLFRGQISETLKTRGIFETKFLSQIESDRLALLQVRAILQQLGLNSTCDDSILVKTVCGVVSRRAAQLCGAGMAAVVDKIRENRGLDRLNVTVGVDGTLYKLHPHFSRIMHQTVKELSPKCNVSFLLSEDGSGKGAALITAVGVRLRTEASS

PglD = PglD (Campylobacter jejuni, UniProt O86157); test: PglD acetyltransferase inhibitors, dose response, biochemical, DTNB absorbance, cherry-picked samples, set 2 (AID 624257)
[1] = molecular target: STE20-like serine/threonine-protein kinase (Homo sapiens, UniProt Q9H2G2)
[2] = molecular target: Tyrosine-protein kinase receptor UFO (Homo sapiens, UniProt P30530)
[3] = molecular target: Protein kinase C iota type (Homo sapiens, UniProt P41743);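 also: measured within a kinome-wide kinase panel, PRKCI as panel member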
[4] = molecular target: Maternal embryonic leucine zipper kinase (Homo sapiens, UniProt Q14680)
[5] = molecular target: cGMP-dependent protein kinase 1 (Homo sapiens, UniProt Q13976);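 also: value from a kinome panel screen with PRKG1 as the panel member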
[6] = molecular target: Serine/threonine-protein kinase TAO1 (Homo sapiens, UniProt Q7L7X3)
[7] = molecular target: Serine/threonine-protein kinase N2 (Homo sapiens, UniProt Q16513)
[8] = molecular target: Tyrosine-protein kinase receptor TYRO3 (Homo sapiens, UniProt Q06418);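 also: TYRO3 value obtained as one member of a kinome-wide profiling panel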

Sequence of Tyrosine-protein kinase receptor UFO (P30530 whole entry): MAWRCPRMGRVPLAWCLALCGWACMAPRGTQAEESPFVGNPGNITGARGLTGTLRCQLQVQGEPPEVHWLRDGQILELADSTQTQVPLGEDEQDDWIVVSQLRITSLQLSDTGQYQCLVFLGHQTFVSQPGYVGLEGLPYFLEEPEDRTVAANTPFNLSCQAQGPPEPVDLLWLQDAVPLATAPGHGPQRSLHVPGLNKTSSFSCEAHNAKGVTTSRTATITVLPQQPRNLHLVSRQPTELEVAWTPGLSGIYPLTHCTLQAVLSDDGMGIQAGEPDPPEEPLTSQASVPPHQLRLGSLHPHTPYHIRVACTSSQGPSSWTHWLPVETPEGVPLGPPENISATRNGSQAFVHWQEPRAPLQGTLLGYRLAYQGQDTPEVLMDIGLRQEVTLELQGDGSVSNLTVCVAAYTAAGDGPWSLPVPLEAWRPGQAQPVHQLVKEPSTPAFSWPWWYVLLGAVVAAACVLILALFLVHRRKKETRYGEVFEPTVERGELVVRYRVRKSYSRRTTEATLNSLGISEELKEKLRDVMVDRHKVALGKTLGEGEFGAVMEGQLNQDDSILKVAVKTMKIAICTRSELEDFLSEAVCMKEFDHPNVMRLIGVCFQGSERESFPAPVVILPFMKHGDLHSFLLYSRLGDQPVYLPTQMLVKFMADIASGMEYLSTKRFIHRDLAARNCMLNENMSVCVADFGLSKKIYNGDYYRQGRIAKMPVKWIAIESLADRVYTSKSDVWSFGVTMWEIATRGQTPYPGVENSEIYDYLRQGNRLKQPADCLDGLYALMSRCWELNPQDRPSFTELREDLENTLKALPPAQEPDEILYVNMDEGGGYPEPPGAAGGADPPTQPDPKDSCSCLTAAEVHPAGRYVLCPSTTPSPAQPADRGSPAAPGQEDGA
Sequence of Serine/threonine-protein kinase TAO1 (Q7L7X3 whole entry): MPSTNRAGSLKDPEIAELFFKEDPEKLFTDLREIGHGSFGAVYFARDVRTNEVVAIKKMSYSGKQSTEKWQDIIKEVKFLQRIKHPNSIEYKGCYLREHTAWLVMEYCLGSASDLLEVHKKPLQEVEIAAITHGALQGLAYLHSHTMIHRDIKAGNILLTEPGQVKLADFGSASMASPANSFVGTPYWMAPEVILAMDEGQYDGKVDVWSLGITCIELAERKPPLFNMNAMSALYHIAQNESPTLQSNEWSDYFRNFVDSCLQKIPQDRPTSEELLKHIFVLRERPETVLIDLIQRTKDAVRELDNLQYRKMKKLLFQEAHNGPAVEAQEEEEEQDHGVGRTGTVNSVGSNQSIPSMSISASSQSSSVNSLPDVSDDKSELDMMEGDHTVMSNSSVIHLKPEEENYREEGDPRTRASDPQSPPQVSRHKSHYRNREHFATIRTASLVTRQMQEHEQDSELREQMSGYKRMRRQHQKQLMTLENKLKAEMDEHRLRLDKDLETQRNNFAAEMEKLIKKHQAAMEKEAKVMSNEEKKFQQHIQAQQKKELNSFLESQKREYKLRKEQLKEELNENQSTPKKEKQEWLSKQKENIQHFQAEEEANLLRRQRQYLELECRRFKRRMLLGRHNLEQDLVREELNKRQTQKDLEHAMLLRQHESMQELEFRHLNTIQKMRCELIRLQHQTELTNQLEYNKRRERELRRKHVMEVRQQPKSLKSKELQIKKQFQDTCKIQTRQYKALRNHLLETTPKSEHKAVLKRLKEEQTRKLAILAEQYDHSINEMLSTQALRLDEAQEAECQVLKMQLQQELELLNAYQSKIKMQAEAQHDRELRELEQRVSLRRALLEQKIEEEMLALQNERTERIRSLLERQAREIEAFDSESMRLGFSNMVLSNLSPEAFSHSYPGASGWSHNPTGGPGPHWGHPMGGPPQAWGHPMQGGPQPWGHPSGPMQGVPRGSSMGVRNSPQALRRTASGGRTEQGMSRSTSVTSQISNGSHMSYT
Sequence of cGMP-dependent protein kinase 1 (Q13976 whole entry): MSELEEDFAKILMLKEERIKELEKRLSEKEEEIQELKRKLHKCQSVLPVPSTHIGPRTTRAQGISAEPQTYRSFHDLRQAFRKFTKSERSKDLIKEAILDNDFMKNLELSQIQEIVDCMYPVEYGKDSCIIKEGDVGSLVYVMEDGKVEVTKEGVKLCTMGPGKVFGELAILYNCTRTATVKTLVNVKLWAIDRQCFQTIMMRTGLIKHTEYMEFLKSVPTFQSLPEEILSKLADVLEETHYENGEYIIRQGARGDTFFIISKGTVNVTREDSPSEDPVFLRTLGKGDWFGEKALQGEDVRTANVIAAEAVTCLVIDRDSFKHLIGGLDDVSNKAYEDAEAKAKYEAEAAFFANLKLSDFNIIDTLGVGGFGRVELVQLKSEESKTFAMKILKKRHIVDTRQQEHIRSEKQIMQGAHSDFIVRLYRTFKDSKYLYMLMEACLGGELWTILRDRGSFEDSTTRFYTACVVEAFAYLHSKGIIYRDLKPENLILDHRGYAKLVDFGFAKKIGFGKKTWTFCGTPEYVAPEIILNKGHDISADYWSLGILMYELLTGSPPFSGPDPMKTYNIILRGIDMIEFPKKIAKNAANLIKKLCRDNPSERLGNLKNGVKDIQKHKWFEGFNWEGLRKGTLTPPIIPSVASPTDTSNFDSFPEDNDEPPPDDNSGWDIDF
Sequence of SUMO-activating enzyme (Q9UBE0 whole entry): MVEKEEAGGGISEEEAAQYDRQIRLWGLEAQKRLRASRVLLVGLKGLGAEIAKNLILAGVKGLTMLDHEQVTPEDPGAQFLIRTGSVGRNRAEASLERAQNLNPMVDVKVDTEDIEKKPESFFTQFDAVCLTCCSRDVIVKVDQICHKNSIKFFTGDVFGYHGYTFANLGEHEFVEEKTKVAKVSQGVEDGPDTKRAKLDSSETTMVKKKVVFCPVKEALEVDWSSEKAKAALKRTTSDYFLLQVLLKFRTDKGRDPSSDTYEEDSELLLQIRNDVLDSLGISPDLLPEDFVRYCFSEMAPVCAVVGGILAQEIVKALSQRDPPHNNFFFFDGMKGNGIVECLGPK
Sequence of SUMO-activating enzyme (Q9UBT2 whole entry): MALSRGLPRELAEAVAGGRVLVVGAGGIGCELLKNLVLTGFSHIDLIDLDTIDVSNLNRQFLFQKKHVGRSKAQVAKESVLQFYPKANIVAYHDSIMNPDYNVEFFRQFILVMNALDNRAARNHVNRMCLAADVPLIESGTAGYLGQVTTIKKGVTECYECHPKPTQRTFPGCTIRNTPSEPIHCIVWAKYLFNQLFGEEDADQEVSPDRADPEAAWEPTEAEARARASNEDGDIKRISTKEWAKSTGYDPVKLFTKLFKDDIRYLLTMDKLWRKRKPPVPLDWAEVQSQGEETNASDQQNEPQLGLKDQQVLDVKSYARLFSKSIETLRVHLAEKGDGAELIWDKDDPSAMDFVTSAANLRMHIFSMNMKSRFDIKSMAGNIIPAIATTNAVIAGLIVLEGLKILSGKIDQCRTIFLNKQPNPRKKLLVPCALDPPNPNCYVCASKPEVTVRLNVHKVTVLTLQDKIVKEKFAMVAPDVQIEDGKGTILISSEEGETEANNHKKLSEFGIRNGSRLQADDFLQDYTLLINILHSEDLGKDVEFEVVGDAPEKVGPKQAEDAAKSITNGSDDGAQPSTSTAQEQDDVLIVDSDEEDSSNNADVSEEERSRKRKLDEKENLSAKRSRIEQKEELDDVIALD
Sequence of PglD (O86157 whole entry): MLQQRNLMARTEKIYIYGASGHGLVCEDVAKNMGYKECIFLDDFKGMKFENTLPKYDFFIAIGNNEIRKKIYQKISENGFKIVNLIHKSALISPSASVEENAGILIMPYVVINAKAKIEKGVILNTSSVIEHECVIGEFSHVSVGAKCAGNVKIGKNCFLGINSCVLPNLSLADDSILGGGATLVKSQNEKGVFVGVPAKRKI
Sequence of STE20-like serine/threonine-protein kinase (Q9H2G2 whole entry): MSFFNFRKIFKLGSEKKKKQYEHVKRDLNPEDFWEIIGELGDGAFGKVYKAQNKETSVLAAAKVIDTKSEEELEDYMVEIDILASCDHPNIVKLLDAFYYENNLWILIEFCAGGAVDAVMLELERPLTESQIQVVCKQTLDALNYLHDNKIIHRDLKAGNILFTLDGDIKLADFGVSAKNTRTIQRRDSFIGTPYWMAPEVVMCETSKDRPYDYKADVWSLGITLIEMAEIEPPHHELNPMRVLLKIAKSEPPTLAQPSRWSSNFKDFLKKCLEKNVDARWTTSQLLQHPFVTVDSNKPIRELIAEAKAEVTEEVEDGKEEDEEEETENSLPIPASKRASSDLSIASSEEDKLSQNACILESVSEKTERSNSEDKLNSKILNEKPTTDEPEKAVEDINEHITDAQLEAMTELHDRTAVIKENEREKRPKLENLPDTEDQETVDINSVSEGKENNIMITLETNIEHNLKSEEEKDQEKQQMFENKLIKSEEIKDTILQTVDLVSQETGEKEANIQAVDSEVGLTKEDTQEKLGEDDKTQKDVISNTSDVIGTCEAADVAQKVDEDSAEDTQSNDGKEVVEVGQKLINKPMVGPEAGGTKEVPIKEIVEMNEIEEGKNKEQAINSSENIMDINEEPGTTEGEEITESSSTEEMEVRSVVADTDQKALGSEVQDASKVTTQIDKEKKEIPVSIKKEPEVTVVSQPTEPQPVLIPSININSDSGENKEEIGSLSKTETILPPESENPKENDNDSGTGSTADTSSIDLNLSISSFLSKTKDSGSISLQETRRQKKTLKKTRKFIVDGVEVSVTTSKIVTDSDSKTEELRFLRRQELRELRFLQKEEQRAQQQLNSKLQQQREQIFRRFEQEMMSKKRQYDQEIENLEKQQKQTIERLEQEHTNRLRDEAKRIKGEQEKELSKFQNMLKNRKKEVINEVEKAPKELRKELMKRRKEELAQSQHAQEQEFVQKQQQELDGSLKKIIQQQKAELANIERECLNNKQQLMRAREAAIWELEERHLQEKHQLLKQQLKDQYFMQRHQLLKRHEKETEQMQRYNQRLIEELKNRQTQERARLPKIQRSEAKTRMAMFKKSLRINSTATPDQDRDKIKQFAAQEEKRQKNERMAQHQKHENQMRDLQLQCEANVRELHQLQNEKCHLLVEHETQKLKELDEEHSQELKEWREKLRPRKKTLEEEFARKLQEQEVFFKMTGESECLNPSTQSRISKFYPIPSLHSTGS

Ki [1] | Ki [2] | Ki [3] | Ki [4] | Ki [5] | Ki [6] | Ki [7] | Ki [8] | SMILES | IC50 (SUMO-activating enzyme) | IC50 (Hexokinase-1) | AC50 (PglD)
– | – | – | – | – | – | – | – | CC(=O)NC1C(=O)N(CCN2CCOCC2)c2ccc(Cl)cc21 (stereo unspecified) | 5250 nM (active) | > 80000 nM (inactive) | 17500 nM (active)
200 nM (active) | > 2000 nM (inactive) | 251 nM (active) | 15.8 nM (active) | 15.8 nM (active) | 31.6 nM (active) | 25.1 nM (active) | 2000 nM (active) | Cc1n[nH]c2cnc(-c3cncc(OCC(N)Cc4cccc(C(F)(F)F)c4)c3)cc12 (stereo unspecified) | – | – | –
